What was measured:
[1] = xn = mol fraction of the nth substance listed; details: 101 kPa, Liquid
[2] = refractive index (Na D-line) (dimensionless); xn = mol fraction of the nth substance listed; details: 101 kPa, Liquid

CCCCN(CCCC)CCCC [tributylamine] + c1ccccc1
Details | mass density, [1] [kg/m3] | refractive index, [2]
278.15 K, x2 = 0.0702 | 790.1 | 1.4425
278.15 K, x2 = 0.1162 | 791.1 | 1.4495
278.15 K, x2 = 0.1687 | 792.5 | 1.4566
278.15 K, x2 = 0.2383 | 794.9 | 1.4636
278.15 K, x2 = 0.3091 | 797.7 | 1.4707
278.15 K, x2 = 0.4032 | 802.2 | 1.4779
278.15 K, x2 = 0.5043 | 808.5 | 1.485
278.15 K, x2 = 0.6492 | 821.3 | 1.4922
278.15 K, x2 = 0.8251 | 846.8 | 1.4994
283.15 K, x2 = 0.0702 | 786.7 | 1.4414
283.15 K, x2 = 0.1162 | 787.8 | 1.4485
283.15 K, x2 = 0.1687 | 789.3 | 1.4557
283.15 K, x2 = 0.2383 | 791.8 | 1.4628
283.15 K, x2 = 0.3091 | 794.6 | 1.47
283.15 K, x2 = 0.4032 | 799.2 | 1.4771
283.15 K, x2 = 0.5043 | 805.6 | 1.4842
283.15 K, x2 = 0.6492 | 818.5 | 1.4914
283.15 K, x2 = 0.8251 | 844.1 | 1.4985
288.15 K, x2 = 0.0702 | 783.2 | 1.4406
288.15 K, x2 = 0.1162 | 784.4 | 1.448
288.15 K, x2 = 0.1687 | 786 | 1.4551
288.15 K, x2 = 0.2383 | 788.5 | 1.4621
288.15 K, x2 = 0.3091 | 791.3 | 1.4692
288.15 K, x2 = 0.4032 | 795.9 | 1.4763
288.15 K, x2 = 0.5043 | 802.3 | 1.4834
288.15 K, x2 = 0.6492 | 815.2 | 1.4905
288.15 K, x2 = 0.8251 | 840.8 | 1.4976
293.15 K, x2 = 0.0702 | 779.9 | 1.4394
293.15 K, x2 = 0.1162 | 781.1 | 1.4466
293.15 K, x2 = 0.1687 | 782.7 | 1.4538
293.15 K, x2 = 0.2383 | 785.3 | 1.4609
293.15 K, x2 = 0.3091 | 788.1 | 1.4681
293.15 K, x2 = 0.4032 | 792.7 | 1.4752
293.15 K, x2 = 0.5043 | 799 | 1.4824
293.15 K, x2 = 0.6492 | 811.8 | 1.4896
293.15 K, x2 = 0.8251 | 837.1 | 1.4967
298.15 K, x2 = 0 | 774.3 | –
298.15 K, x2 = 0.0702 | 775.6 | 1.4385
298.15 K, x2 = 0.1162 | 776.9 | 1.4456
298.15 K, x2 = 0.1687 | 778.5 | 1.4527
298.15 K, x2 = 0.2383 | 781 | 1.4602
298.15 K, x2 = 0.3091 | 783.8 | 1.4671
298.15 K, x2 = 0.4032 | 788.3 | 1.4742
298.15 K, x2 = 0.5043 | 794.5 | 1.4816
298.15 K, x2 = 0.6492 | 807 | 1.4881
298.15 K, x2 = 0.8251 | 831.6 | 1.4951
303.15 K, x2 = 0 | 770.8 | –
303.15 K, x2 = 0.0702 | 772.5 | 1.4383
303.15 K, x2 = 0.1162 | 773.8 | 1.4454
303.15 K, x2 = 0.1687 | 775.4 | 1.4524
303.15 K, x2 = 0.2383 | 777.9 | 1.46
303.15 K, x2 = 0.3091 | 780.8 | 1.4667
303.15 K, x2 = 0.4032 | 785.4 | 1.474
303.15 K, x2 = 0.5043 | 791.6 | 1.4812
303.15 K, x2 = 0.6492 | 804.3 | 1.4876
303.15 K, x2 = 0.8251 | 829 | 1.4946
308.15 K, x2 = 0 | 767.2 | –
308.15 K, x2 = 0.0702 | 769.1 | 1.4374
308.15 K, x2 = 0.1162 | 770.4 | 1.4443
308.15 K, x2 = 0.1687 | 771.9 | 1.4514
308.15 K, x2 = 0.2383 | 774.4 | 1.4589
308.15 K, x2 = 0.3091 | 777.3 | 1.4658
308.15 K, x2 = 0.4032 | 781.9 | 1.4733
308.15 K, x2 = 0.5043 | 788.1 | 1.4803
308.15 K, x2 = 0.6492 | 800.6 | 1.4868
308.15 K, x2 = 0.8251 | 824.9 | 1.4936
313.15 K, x2 = 0 | 763.6 | –
313.15 K, x2 = 0.0702 | 765.5 | 1.4366
313.15 K, x2 = 0.1162 | 766.8 | 1.4438
313.15 K, x2 = 0.1687 | 768.4 | 1.4508
313.15 K, x2 = 0.2383 | 770.9 | 1.4581
313.15 K, x2 = 0.3091 | 773.8 | 1.465
313.15 K, x2 = 0.4032 | 778.4 | 1.4726
313.15 K, x2 = 0.5043 | 784.5 | 1.4795
313.15 K, x2 = 0.6492 | 797 | 1.486
313.15 K, x2 = 0.8251 | 821.1 | 1.4928
318.15 K, x2 = 0 | 759.8 | –
318.15 K, x2 = 0.0702 | 761.8 | 1.4358
318.15 K, x2 = 0.1162 | 763.1 | 1.4431
318.15 K, x2 = 0.1687 | 764.8 | 1.45
318.15 K, x2 = 0.2383 | 767.2 | 1.4575
318.15 K, x2 = 0.3091 | 770.1 | 1.4643
318.15 K, x2 = 0.4032 | 774.7 | 1.4718
318.15 K, x2 = 0.5043 | 780.8 | 1.4788
318.15 K, x2 = 0.6492 | 793.3 | 1.4853
318.15 K, x2 = 0.8251 | 817.2 | 1.492

CCN(CC)CC [triethylamine] + c1ccccc1
Details | mass density, [1] [kg/m3] | refractive index, [2]
278.15 K, x2 = 0.1145 | 751.3 | 1.4149
278.15 K, x2 = 0.2043 | 759.4 | 1.4197
278.15 K, x2 = 0.3005 | 769.2 | 1.4261
278.15 K, x2 = 0.4005 | 780.6 | 1.4336
278.15 K, x2 = 0.5023 | 793.6 | 1.4421
278.15 K, x2 = 0.6037 | 808.1 | 1.4518
278.15 K, x2 = 0.7035 | 824.2 | 1.4625
278.15 K, x2 = 0.8079 | 843.9 | 1.4756
278.15 K, x2 = 0.9069 | 866.2 | 1.4902
283.15 K, x2 = 0.1145 | 747.4 | 1.4133
283.15 K, x2 = 0.2043 | 755.5 | 1.418
283.15 K, x2 = 0.3005 | 765.4 | 1.4243
283.15 K, x2 = 0.4005 | 776.9 | 1.4318
283.15 K, x2 = 0.5023 | 790 | 1.4404
283.15 K, x2 = 0.6037 | 804.6 | 1.4501
283.15 K, x2 = 0.7035 | 821 | 1.4609
283.15 K, x2 = 0.8079 | 841 | 1.474
283.15 K, x2 = 0.9069 | 863.5 | 1.4886
288.15 K, x2 = 0.1145 | 743.3 | 1.4113
288.15 K, x2 = 0.2043 | 751.5 | 1.416
288.15 K, x2 = 0.3005 | 761.4 | 1.4224
288.15 K, x2 = 0.4005 | 772.9 | 1.43
288.15 K, x2 = 0.5023 | 786 | 1.4387
288.15 K, x2 = 0.6037 | 800.7 | 1.4485
288.15 K, x2 = 0.7035 | 817.2 | 1.4594
288.15 K, x2 = 0.8079 | 837.4 | 1.4727
288.15 K, x2 = 0.9069 | 859.9 | 1.4872
293.15 K, x2 = 0.1145 | 738.4 | 1.409
293.15 K, x2 = 0.2043 | 746.8 | 1.4137
293.15 K, x2 = 0.3005 | 756.7 | 1.4201
293.15 K, x2 = 0.4005 | 768.2 | 1.4278
293.15 K, x2 = 0.5023 | 781.4 | 1.4366
293.15 K, x2 = 0.6037 | 796.1 | 1.4465
293.15 K, x2 = 0.7035 | 812.7 | 1.4576
293.15 K, x2 = 0.8079 | 833.1 | 1.471
293.15 K, x2 = 0.9069 | 855.6 | 1.4856
298.15 K, x2 = 0 | 723.4 | –
298.15 K, x2 = 0.1145 | 733.4 | 1.4062
298.15 K, x2 = 0.2043 | 741.8 | 1.411
298.15 K, x2 = 0.3005 | 751.7 | 1.4173
298.15 K, x2 = 0.4005 | 763.1 | 1.425
298.15 K, x2 = 0.5023 | 776.1 | 1.4338
298.15 K, x2 = 0.6037 | 790.7 | 1.4438
298.15 K, x2 = 0.7035 | 807.2 | 1.4549
298.15 K, x2 = 0.8079 | 827.4 | 1.4683
298.15 K, x2 = 0.9069 | 849.6 | 1.4829
303.15 K, x2 = 0 | 717.9 | –
303.15 K, x2 = 0.1145 | 728.2 | 1.4038
303.15 K, x2 = 0.2043 | 737 | 1.4088
303.15 K, x2 = 0.3005 | 747.1 | 1.4151
303.15 K, x2 = 0.4005 | 758.7 | 1.4228
303.15 K, x2 = 0.5023 | 772 | 1.4317
303.15 K, x2 = 0.6037 | 786.8 | 1.4418
303.15 K, x2 = 0.7035 | 803.6 | 1.4531
303.15 K, x2 = 0.8079 | 824.2 | 1.4666
303.15 K, x2 = 0.9069 | 846.8 | 1.4812
308.15 K, x2 = 0 | 712.9 | –
308.15 K, x2 = 0.1145 | 723.4 | 1.4009
308.15 K, x2 = 0.2043 | 732.3 | 1.4061
308.15 K, x2 = 0.3005 | 742.4 | 1.4125
308.15 K, x2 = 0.4005 | 754 | 1.4203
308.15 K, x2 = 0.5023 | 767.3 | 1.4293
308.15 K, x2 = 0.6037 | 782.1 | 1.4395
308.15 K, x2 = 0.7035 | 799 | 1.451
308.15 K, x2 = 0.8079 | 819.6 | 1.4647
308.15 K, x2 = 0.9069 | 842.1 | 1.4795
313.15 K, x2 = 0 | 708.3 | –
313.15 K, x2 = 0.1145 | 718.9 | 1.3988
313.15 K, x2 = 0.2043 | 727.9 | 1.4043
313.15 K, x2 = 0.3005 | 738.1 | 1.4107
313.15 K, x2 = 0.4005 | 749.7 | 1.4185
313.15 K, x2 = 0.5023 | 762.9 | 1.4275
313.15 K, x2 = 0.6037 | 777.8 | 1.4378
313.15 K, x2 = 0.7035 | 794.7 | 1.4495
313.15 K, x2 = 0.8079 | 815.4 | 1.4632
313.15 K, x2 = 0.9069 | 837.8 | 1.4779
318.15 K, x2 = 0 | 701.6 | –
318.15 K, x2 = 0.1145 | 712.6 | 1.3961
318.15 K, x2 = 0.2043 | 721.7 | 1.4017
318.15 K, x2 = 0.3005 | 732.1 | 1.4082
318.15 K, x2 = 0.4005 | 743.9 | 1.4161
318.15 K, x2 = 0.5023 | 757.2 | 1.4252
318.15 K, x2 = 0.6037 | 772.3 | 1.4356
318.15 K, x2 = 0.7035 | 789.5 | 1.4474
318.15 K, x2 = 0.8079 | 810.5 | 1.4613
318.15 K, x2 = 0.9069 | 833.1 | 1.4759

— the NIST ThermoML archive (doi:10.1007/s10765-006-0095-5)
